Test results from patent US20090081194A1, “COMPOSITIONS AND METHODS FOR REDUCING RISK OF DEVELOPMENT, OR SEVERITY, OF INAPPROPRIATE IMMUNE RESPONSE IN EYES” (priority 2007, published 2009).

Key:
[1] = target: T1, TLR9 (Homo sapiens, UniProt Q9NR96); conditions: Bhattacharjee et al. 2006; Macfarlane et al. 1998; cited from earlier work
T1 sequence (Q9NR96 26-1032): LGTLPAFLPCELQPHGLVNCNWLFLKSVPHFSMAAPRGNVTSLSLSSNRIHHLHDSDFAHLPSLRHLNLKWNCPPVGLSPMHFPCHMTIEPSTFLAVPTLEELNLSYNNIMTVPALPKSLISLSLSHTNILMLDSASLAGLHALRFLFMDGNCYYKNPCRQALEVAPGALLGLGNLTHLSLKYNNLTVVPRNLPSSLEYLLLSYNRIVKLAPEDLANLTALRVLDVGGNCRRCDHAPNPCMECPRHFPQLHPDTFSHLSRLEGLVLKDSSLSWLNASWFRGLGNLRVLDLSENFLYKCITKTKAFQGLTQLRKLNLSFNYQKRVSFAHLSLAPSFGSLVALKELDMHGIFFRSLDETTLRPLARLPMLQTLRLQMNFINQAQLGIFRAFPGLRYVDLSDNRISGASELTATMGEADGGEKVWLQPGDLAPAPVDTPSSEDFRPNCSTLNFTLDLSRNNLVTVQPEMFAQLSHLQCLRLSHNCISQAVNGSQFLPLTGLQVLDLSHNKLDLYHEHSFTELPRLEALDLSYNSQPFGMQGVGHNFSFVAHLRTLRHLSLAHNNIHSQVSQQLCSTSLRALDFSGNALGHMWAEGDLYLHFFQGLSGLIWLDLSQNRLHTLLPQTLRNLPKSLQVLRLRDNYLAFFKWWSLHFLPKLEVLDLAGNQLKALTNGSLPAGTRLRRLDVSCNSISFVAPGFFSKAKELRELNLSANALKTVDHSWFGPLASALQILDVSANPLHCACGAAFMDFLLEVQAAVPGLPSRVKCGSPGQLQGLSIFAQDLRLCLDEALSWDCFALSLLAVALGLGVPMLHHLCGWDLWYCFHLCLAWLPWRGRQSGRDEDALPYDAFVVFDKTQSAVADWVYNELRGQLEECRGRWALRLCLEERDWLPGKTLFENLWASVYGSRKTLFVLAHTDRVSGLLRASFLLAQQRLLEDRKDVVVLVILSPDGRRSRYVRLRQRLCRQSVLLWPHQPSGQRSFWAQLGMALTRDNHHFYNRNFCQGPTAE

[2] = test system: HCEL, a human corneal epithelial cell line; test: TLR ligand-induced CXCL8 (IL-8) release, HCEL cell line; type: cell-based; conditions: inhibitor 1 hour before, FIG. 7
From the text: (§1) Three human cell lines representative of immune responsive cells of the ocular surface (HCEL, a human corneal epithelial cell line representative of cells present on the ocular surface; HL-60, a neutrophil-like cell line representative of neutrophils present in the tear layer, especially in the closed eye; and U937, a macrophage cell line representative of dendritic cells of the cornea, especially of those at the limbus) were exposed to various concentrations of compositions of the present invention containing the inhibitory ODN TTAGGG (InvivoGen, San Diego, Calif.) and vitamin D (1α,25-Dihydroxyvitamin D3, Sigma-Aldrich, St. Louis, Mo.) and control compositions containing prednisolone (1,4-Pregnadiene-11β,17α,21-triol-3,20-dione, Sigma-Aldrich, St. Louis, Mo.) for 1 hour prior to activation by the TLR ligand Pam3Cys for 6 hour, flagellin (flagellin purified from Salmonella typhimurium, InvivoGen, San Diego, Calif.) for 24 hr, or the stimulatory CpG type B ODN 2006 (Invivogen, San Diego, Calif.) for 24 hours. After incubation at 37° C., supernates were collected for ELISA assay (R&D Systems, Minneapolis, Minn.) for the pro-inflammatory cytokine CXCL8 (“IL-8”). Both the inhibitory ODN TTAGGG and vitamin D inhibited cytokine response to TLR ligand activation of each cell line in an inhibitor-specific manner. […] Inhibition of the stimulatory ODN CpGB ODN 2006 was only tested with inhibitory ODN TTAGGG on U937 cells.

[3] = test system: HL-60, a neutrophil-like cell line; test: TLR ligand-induced CXCL8 (IL-8) release, HL-60 cell line; type: cell-based, human; conditions: inhibitor 1 hour before, FIG. 7
From the text: as §1

[4] = test system: U937, a macrophage cell line; test: TLR ligand-induced CXCL8 (IL-8) release, U937 cell line; type: cell-based, human; conditions: FIG. 7
From the text: as §1

[5] = test system: TLR2; conditions: monocytes; K. Sadeghi et al. 2006; cited from earlier work
[6] = test system: TLR4; conditions: monocytes; K. Sadeghi et al. 2006; cited from earlier work
[7] = target: T1, TLR9; conditions: Gursel et al. 2003; Stunz et al. 2002; cited from earlier work
[8] = test system: U937 cells; conditions: H. Mitsuzawa et al. 2006; cited from earlier work
[9] = test system: NF-κB; conditions: LPS-elicited; H. Mitsuzawa et al. 2006; cited from earlier work
[10] = flagellin activation 24 hr, inhibitor 1 hour before

Which “immunostimulatory action of CpG ODN” value [1] does the source give for `Nc1ccnc2ccccc12` [4-aminoquinoline] here?
The value was “block the immunostimulatory action of CpG ODN”.

Which “immunostimulatory action of CpG ODN” value [1] does the source give for `Nc1c2ccccc2nc2ccccc12` [9-aminoacridine] here?
Its value is “block the immunostimulatory action of CpG ODN”.

Which “CXCL8 (IL-8) cytokine response” value ([2]; Pam3Cys activation 6 hour) does the source give for `C[C@]12C=CC(=O)C=C1CC[C@@H]1[C@@H]2[C@@H](O)C[C@@]2(C)[C@H]1CC[C@]2(O)C(=O)CO` [Prednisolone, 1,4-Pregnadiene-11β,17α,21-triol-3,20-dione] here?
The value was “inhibited”.

And the “CXCL8 (IL-8) cytokine response” value ([2]; flagellin activation 24 hr)?
Its value is “inhibited”.

What about the “CXCL8 (IL-8) cytokine response” value ([3]; Pam3Cys activation 6 hour) of the same molecule?
Its value is “inhibited”.

And the “CXCL8 (IL-8) cytokine response” value ([3]; flagellin activation 24 hr)?
The value was “inhibited”.

And the “CXCL8 (IL-8) cytokine response” value [4, 10]?
Its value is “inhibited”.

What does the source list for `C=C1/C(=C\C=C2/CCC[C@]3(C)[C@@H]([C@H](C)CCCC(C)(C)O)CC[C@@H]23)C[C@@H](O)C[C@@H]1O` [Vitamin D, 1α,25-Dihydroxyvitamin D3]?
CXCL8 (IL-8) cytokine response ([2]; Pam3Cys activation 6 hour): reduced the cytokine response; CXCL8 (IL-8) cytokine response ([3]; flagellin activation 24 hr): reduced the cytokine response; CXCL8 (IL-8) cytokine response [4, 10]: reduced the cytokine response; expression of TLR2 [5]: diminishes the expression; expression of TLR4 [6]: diminishes the expression

Which “immunostimulatory action of CpG ODN” value [1] does the source give for `CCN(CC)CCCC(C)Nc1ccnc2cc(Cl)ccc12` (stereo not drawn) [chloroquine] here?
The value was “block the immunostimulatory action of CpG ODN”.

For `CCN(CCO)CCCC(C)Nc1ccnc2cc(Cl)ccc12` (stereo not drawn) [hydroxychloroquine], which “immunostimulatory action of CpG ODN” value [1] is on record?
The value was “block the immunostimulatory action of CpG ODN”.

With `CCN(CC)CCCC(C)Nc1c2ccc(Cl)cc2nc2ccc(OC)cc12` (stereo not drawn) [quinacrine] as the molecule, how does the “immunostimulatory action of CpG ODN” value [1] read?
The value was “block the immunostimulatory action of CpG ODN”.

With “TTAGGG (listed as Homo sapiens) [ODN TTTAGGG]” as the molecule, how does the “CXCL8 (IL-8) cytokine response” value ([2]; Pam3Cys activation 6 hour) read?
Its value is “reduced the cytokine response”.

What about the “CXCL8 (IL-8) cytokine response” value ([3]; Pam3Cys activation 6 hour) of the same molecule?
Its value is “reduced the cytokine response”.

And the “CXCL8 (IL-8) cytokine response” value ([4]; Pam3Cys activation 6 hour, inhibitor 1 hour before)?
Its value is “reduced the cytokine response”.

And the “CXCL8 (IL-8) cytokine response” value ([4]; stimulatory CpG type B ODN 2006 activation 24 hours)?
The value was “reduced the cytokine response”.

What about the “colocalization of CpG DNA with TLR9 within endosomal vesicles” value [7] of the same molecule?
The value was “block the colocalization”.

With “sTLR4: soluble form of a CD14-binding extracellular domain of TLR4” as the molecule, how does the “LPS-elicited IL-8 release” value [8] read?
The value was “effective in inhibiting”.

And the NF-κB activation [9]?
The NF-κB activation was “effective in inhibiting”.

B1: sMD-2: soluble form of MD-2 (protein, UniProt Q9Y6Y9 19-160, looked up)
Lymphocyte antigen 96: QKQYWVCNSSDASISYTYCDKMQYPISINVNPCIELKRSKGLLHIFYIPRRDLKQLYFNLYITVNTMNLPKRKEVICRGSDDDYSFCRALKGETVNTTISFSFKGIKFSKGKYKCVVEAISGSPEEMLFCLEFVILHQPNSN
What does the source list for B1?
LPS-elicited IL-8 release [8]: effective in inhibiting; NF-κB activation [9]: effective in inhibiting
